In PMC10779433, “Bidirectional Allosteric Coupling between PIP2 Binding and the Pore of the Oncochannel TRPV6” (International Journal of Molecular Sciences, 2024):
Residues, ends and D or L forms follow the SMILES beside them. *: point of attachment. Palmitoyl = CCCCCCCCCCCCCCCC(=O)*

What was measured:
[1] = tested on: TRPV6 R492Q; assay: Whole-cell patch clamp, TRPV6 R492Q; type: cell-based, human; conditions: HEK293 cells, p < 0.05
Text: N-terminally TagRFP-labeled human TRPV6 (725 aa) was kindly provided by R. Bhardwaj and M. Hediger (University of Bern, Bern, Switzerland). This variant is translated from the first ATG codon and thus deviates from the non-ATG-initiated protein which is expressed in vivo (accession number NM_018646.6) by lacking 40 amino acids of the very N-terminus. For N-terminal labeling with EYFP, TRPV6 was cloned into pEYFP-C1 (Clontech) via EcoRI and SacII restriction sites. Mutations (F468A, R470A, F472A, K484A/Q, G488R, R492A/Q, I575A, G579A, D580A/K, H582A, W583A/F, H587A, R589A, W593A, R632A/Q, R470A, W583F) were introduced using the QuickChange XL site-directed mutagenesis kit (Stratagene, San Diego, CA, USA) and Pfu DNA Polymerase (Promega, Madison, WI, USA). pTagRFP-hTRPV6 I575A was kindly provided by the lab of M. Hediger (University of Bern, Bern, Switzerland). Forward and reverse primers for site-directed mutagenesis were synthesized by Eurofins genomics GmbH (Wien, Vienna, Austria). Intactness of the constructs in terms of sequence was confirmed by sequencing (Microsynth Austria GmbH, Wien, Vienna, Austria; Eurofins genomics GmbH, Wien, Vienna, Austria). In the present experiments, Tag-RFP-labeled constructs were implemented for NFAT screens, patch clamp measurements, and Fura-2-based Ca^2+ imaging, while for R.Geco1.2 measurements, TRPV6 WT and mutants were used which carried an EYFP label at the N-terminus (pEYFP-C1 vector) to avoid spectral overlap. R.Geco1.2 was purchased from Addgene (No. 45494), and mCherry-CRY2-5ptase OCRL was established in the lab of P. De Camilli and was derived from Addgene (No. 66836), as was CIBN-CAAX (No. 79574). Plasmids encoding for mCerulean3-CRY2-5′ ptase OCRL, YFP-CIBN-CAAX, and the mCherry-tagged PH domain were provided by K. Groschner (Medical University of Graz, Graz, Austria). […]
Electrophysiological experiments were performed at 20 °C to 24 °C in whole-cell recording configurations of the patch clamp technique. […] The liquid junction potential was determined as 12 mV; the voltages were not adjusted. […]

[2] = target: T1, TRPV6 WT (Homo sapiens, UniProt Q9H1D0); assay: NFAT localization, TRPV6 WT; type: cell-based; conditions: HEK293 cells
T1 construct: expressed in transfected cells; host or cells: HEK293 cells, transient transfection
T1 sequence (Q9H1D0 41-765 limits assumed): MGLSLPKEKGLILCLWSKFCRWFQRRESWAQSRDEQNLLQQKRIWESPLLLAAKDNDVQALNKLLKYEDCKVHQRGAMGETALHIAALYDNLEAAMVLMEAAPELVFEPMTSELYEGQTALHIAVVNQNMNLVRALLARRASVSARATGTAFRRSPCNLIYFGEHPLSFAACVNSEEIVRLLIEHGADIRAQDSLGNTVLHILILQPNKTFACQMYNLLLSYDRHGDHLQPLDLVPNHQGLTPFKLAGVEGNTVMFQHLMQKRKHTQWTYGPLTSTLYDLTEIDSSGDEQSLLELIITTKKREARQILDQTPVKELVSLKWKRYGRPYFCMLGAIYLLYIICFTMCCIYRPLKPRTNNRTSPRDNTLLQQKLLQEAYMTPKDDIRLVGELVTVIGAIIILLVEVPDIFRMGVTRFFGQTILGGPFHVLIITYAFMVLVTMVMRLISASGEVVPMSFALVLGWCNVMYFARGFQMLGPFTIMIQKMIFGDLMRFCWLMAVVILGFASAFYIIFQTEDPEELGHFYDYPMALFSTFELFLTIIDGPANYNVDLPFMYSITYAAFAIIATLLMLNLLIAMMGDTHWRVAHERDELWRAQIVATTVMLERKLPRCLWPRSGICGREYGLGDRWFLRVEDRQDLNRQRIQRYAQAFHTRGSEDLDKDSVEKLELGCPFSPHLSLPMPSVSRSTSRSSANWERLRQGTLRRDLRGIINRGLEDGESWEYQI
Text: N-terminally TagRFP-labeled human TRPV6 (725 aa) was kindly provided by R. Bhardwaj and M. Hediger (University of Bern, Bern, Switzerland). This variant is translated from the first ATG codon and thus deviates from the non-ATG-initiated protein which is expressed in vivo (accession number NM_018646.6) by lacking 40 amino acids of the very N-terminus. For N-terminal labeling with EYFP, TRPV6 was cloned into pEYFP-C1 (Clontech) via EcoRI and SacII restriction sites. Mutations (F468A, R470A, F472A, K484A/Q, G488R, R492A/Q, I575A, G579A, D580A/K, H582A, W583A/F, H587A, R589A, W593A, R632A/Q, R470A, W583F) were introduced using the QuickChange XL site-directed mutagenesis kit (Stratagene, San Diego, CA, USA) and Pfu DNA Polymerase (Promega, Madison, WI, USA). pTagRFP-hTRPV6 I575A was kindly provided by the lab of M. Hediger (University of Bern, Bern, Switzerland). Forward and reverse primers for site-directed mutagenesis were synthesized by Eurofins genomics GmbH (Wien, Vienna, Austria). Intactness of the constructs in terms of sequence was confirmed by sequencing (Microsynth Austria GmbH, Wien, Vienna, Austria; Eurofins genomics GmbH, Wien, Vienna, Austria). In the present experiments, Tag-RFP-labeled constructs were implemented for NFAT screens, patch clamp measurements, and Fura-2-based Ca^2+ imaging, while for R.Geco1.2 measurements, TRPV6 WT and mutants were used which carried an EYFP label at the N-terminus (pEYFP-C1 vector) to avoid spectral overlap. R.Geco1.2 was purchased from Addgene (No. 45494), and mCherry-CRY2-5ptase OCRL was established in the lab of P. De Camilli and was derived from Addgene (No. 66836), as was CIBN-CAAX (No. 79574). Plasmids encoding for mCerulean3-CRY2-5′ ptase OCRL, YFP-CIBN-CAAX, and the mCherry-tagged PH domain were provided by K. Groschner (Medical University of Graz, Graz, Austria). […] CFP-NFAT (NFATc1, equivalent to NFAT2) was kindly provided by R. Kehlenbach (Scripps Research Institute, La Jolla, CA, USA).
After incubation, cover slips were carefully rinsed with phenol red-free DMEM supplemented with the compound and dosage corresponding to the previous incubation, which was then also present during imaging. In any case, an untreated control was included as well, using phenol red-free DMEM as imaging solution. Subcellular NFAT localization of TRPV6 expressing cells was again monitored on an Axiovert 135 inverted microscope (Zeiss, Oberkochen, Germany), as described in more detail before. Excitation of CFP relied on the 425 nm LED in combination with a CHROMA 69,008× ET ECFP/EYFP/mCherry 25mm Dia Mounted filter. Images were analyzed using Matlab2018a, differentiating between three cell populations based on the ratio of CFP emission intensity originating from the nucleus and the cytosol, similar to Schober et al. (2019).

[3] = 5 μM cis-22a, three or four hours

| Compound | current inhibition vs TRPV6 WT ([1]; 0.1 μM cis-22a) | current inhibition vs TRPV6 WT ([1]; 10 μM cis-22a, after 0.1 μM) | NFAT distribution pattern ([2]; 0.1 μM cis-22a, 2 h, 37 °C, vs DMSO about 90% nuclear, about 10% homogeneous) | nuclear NFAT localization (% of cells) ([2]; 5 μM cis-22a, 2 h, vs DMSO control 90% nuclear) | NFAT cytosolic localization [2, 3] | NFAT nuclear localization [2, 3] | NFAT homogeneous vs cytosolic localization ([2]; 10 μM cis-22a, 2 h) | NFAT cytosolic localization, dose dependence ([2]; 0.1, 1, 5, 10 μM cis-22a, 2 h) | NFAT nuclear localization, dose dependence ([2]; 1, 5, or 10 μM cis-22a, 2 h, 37 °C) | sensitivity to peptide-based PIP2 sequestration vs WT ([1]; 10 μM pal-PIP2 peptide, Figure 4D) | NFAT localization patterns ([2]; 10 μM pal-PIP2 peptide, 15–20 min or 2 h) |
| --- | --- | --- | --- | --- | --- | --- | --- | --- | --- | --- | --- |
| Cc1cccc(C2CCC(N3CCN(c4cccnc4)CC3)CC2)c1.O=C(O)C(F)(F)F (stereo not drawn) [cis-22a] | significantly reduced | significantly reduced inhibition | essentially preserved | 22% | roughly 40% | only a small proportion of cells maintained nuclear localization | the likelihood for homogeneous and cytosolic localization equalized | only observed at the two highest concentrations tested | continuously decreased the proportion of cells showing nuclear NFAT localization but favored a homogeneous distribution |  |  |
| CCCCCCCCCCCCCCCC(=O)N[C@@H](Cc1c[nH]cn1)C(=O)N[C@@H](CCCNC(=N)N)C(=O)N[C@@H](CCC(N)=O)C(=O)N[C@@H](CCCCN)C(=O)N[C@@H](Cc1c[nH]cn1)C(=O)N[C@@H](Cc1ccccc1)C(=O)N[C@@H](CCC(=O)O)C(=O)N[C@@H](CCCCN)C(=O)N[C@@H](CCCNC(=N)N)C(=O)N[C@@H](CCCNC(=N)N)C(N)=O [pal-PIP2 peptide] (Palmitoyl-HRQKHFEKRR-NH2) |  |  |  |  |  |  |  |  |  | significantly reduced sensitivity | unable to change localization patterns |
